Patent US12528788B2, “Pesticidally active benzene- and azine-amide compounds” (SYNGENTA CROP PROTECTION AG, priority 2018, dated 2026)

Assays:
Assay type in all cases: in vivo
Diabrotica balteata = assay: Example B1: Diabrotica balteata (corn root worm), maize sprouts sprayed, L2 larvae; details: 96 h, application rate of 200 ppm, 4 days after infestation, L2 larvae on maize sprouts, read-out: control in at least one of the two categories (mortality or growth inhibition)
Procedure: Example B1: Diabrotica balteata (Corn Root Worm)
Maize sprouts placed onto an agar layer in 24-well microtiter plates were treated with aqueous test solutions prepared from 10′000 ppm DMSO stock solutions by spraying. After drying, the plates were infested with L2 larvae (6 to 10 per well). The samples were assessed for mortality and growth inhibition in comparison to untreated samples 4 days after infestation.

Plutella xylostella [1] = assay: Example B5: Plutella xylostella (diamond back moth), artificial diet, 24-well, eggs; details: 192 h, application rate of 200 ppm, 8 days after infestation, read-out: control in at least one of the two categories (mortality or growth inhibition)
Procedure: Example B5: Plutella xylostella (Diamond Back Moth)
24-well microtiter plates with artificial diet were treated with aqueous test solutions prepared from 10′000 ppm DMSO stock solutions by pipetting. After drying, Plutella eggs were pipetted through a plastic stencil onto a gel blotting paper and the plate was closed with it. The samples were assessed for mortality and growth inhibition in comparison to untreated samples 8 days after infestation.

Spodoptera littoralis = assay: Example B9: Spodoptera littoralis (Egyptian cotton leaf worm), cotton leaf discs sprayed, L1 larvae; details: foliar, 72 h, application rate of 200 ppm, 3 days after infestation, read-out: control in at least one of the three categories (mortality, anti-feedant effect or growth inhibition)
Plutella xylostella [2] = assay: Example B14: Plutella xylostella (diamondback moth), 96-well artificial diet; details: 216 h, application rate of 500 ppm, 9 days after infestation
Procedure: Example B14: Plutella xylostella (Diamondback Moth)
96-well microtiter plates containing artificial diet were treated with aqueous test solutions, prepared from 10′000 ppm DMSO stock solutions, by a liquid handling robot. After drying, eggs (˜30 per well) were infested onto a netted lid which was suspended above the diet. The eggs hatch and L1 larvae move down to the diet. The samples were assessed for mortality 9 days after infestation.

Chilo suppressalis = assay: Example B4: Chilo suppressalis (striped rice stemborer), artificial diet, L2 larvae; details: 144 h, application rate of 200 ppm, 6 days after infestation, read-out: control in at least one of the three categories (mortality, anti-feedant effect or growth inhibition)
Procedure: Example B4: Chilo suppressalis (Striped Rice Stemborer)
24-well microtiter plates with artificial diet were treated with aqueous test solutions prepared from 10′000 ppm DMSO stock solutions by pipetting. After drying, the plates were infested with L2 larvae (6-8 per well). The samples were assessed for mortality, anti-feeding effect, and growth inhibition in comparison to untreated samples 6 days after infestation. Control of Chilo suppressalis by a test sample is given when at least one of the categories mortality, anti-feedant effect, and growth inhibition is higher than the untreated sample.

Myzus persicae = assay: Example B13: Myzus persicae (green peach aphid), 96-well sucrose solution; details: 120 h, application rate of 50 ppm, 5 days after infestation
From the text: Example B13: Myzus persicae (Green Peach Aphid)
Test compounds prepared from 10′000 ppm DMSO stock solutions were applied by a liquid handling robot into 96-well microtiter plates and mixed with a sucrose solution. Parafilm was stretched over the 96-well microtiter plate and a plastic stencil with 96 holes was placed onto the plate. Aphids were sieved into the wells directly onto the Parafilm. The infested plates were closed with a gel blotting card and a second plastic stencil and then turned upside down. The samples were assessed for mortality 5 days after infestation.

CC(c1nc(F)ccc1-c1ncccn1)N(CC1CC1)C(=O)c1cc(C(F)(F)F)cc(C(F)(F)F)c1 (stereo not drawn) [Compound P9, N-(cyclopropylmethyl)-N-[1-(6-fluoro-3-pyrimidin-2-yl-2-pyridyl)ethyl]-3,5-bis(trifluoromethyl)benzamide]
percent control (mortality or growth inhibition) at 200 ppm (Diabrotica balteata): ≥ 80% | percent control (mortality or growth inhibition) at 200 ppm (Plutella xylostella [1]): ≥ 80% | percent control (mortality, anti-feedant effect or growth inhibition) at 200 ppm (Spodoptera littoralis): ≥ 80% | mortality at 500 ppm (Plutella xylostella [2]): ≥ 80%

CC(NC(=O)c1cc(OC(F)F)cc(C(F)(F)F)c1)c1nccnc1-c1ncc(C2CC2)cn1 (stereo not drawn) [Compound P33, N-[1-[3-(5-cyclopropylpyrimidin-2-yl)pyrazin-2-yl]ethyl]-3-(difluoromethoxy)-5-(trifluoromethyl)benzamide]
percent control (mortality or growth inhibition) at 200 ppm (Diabrotica balteata): ≥ 80% | percent control (mortality, anti-feedant effect or growth inhibition) at 200 ppm (Chilo suppressalis): ≥ 80% | percent control (mortality or growth inhibition) at 200 ppm (Plutella xylostella [1]): ≥ 80% | percent control (mortality, anti-feedant effect or growth inhibition) at 200 ppm (Spodoptera littoralis): ≥ 80%

CC(NC(=O)c1cc(OC(F)F)cc(C(F)(F)F)c1)c1nccnc1-c1ccc(F)cn1 (stereo not drawn) [Compound P35, 3-(difluoromethoxy)-N-[1-[3-(5-fluoro-2-pyridyl)pyrazin-2-yl]ethyl]-5-(trifluoromethyl)benzamide]
percent control (mortality or growth inhibition) at 200 ppm (Plutella xylostella [1]): ≥ 80%

CC(c1ncncc1-c1ncccn1)N(CC1CC1)C(=O)c1cc(C(F)(F)F)cc(C(F)(F)F)c1 (stereo not drawn) [Compound P6, N-(cyclopropylmethyl)-N-[1-(5-pyrimidin-2-ylpyrimidin-4-yl)ethyl]-3,5-bis(trifluoromethyl)benzamide]
percent control (mortality or growth inhibition) at 200 ppm (Diabrotica balteata): ≥ 80% | percent control (mortality or growth inhibition) at 200 ppm (Plutella xylostella [1]): ≥ 80% | mortality at 500 ppm (Plutella xylostella [2]): ≥ 80%

CC(c1cccnc1-c1ncccn1)N(CC1CC1)C(=O)c1cc(C(F)(F)F)cc(C(F)(F)F)c1 (stereo not drawn) [Compound P1, N-(cyclopropylmethyl)-N-[1-(2-pyrimidin-2-yl-3-pyridyl)ethyl]-3,5-bis(trifluoromethyl)benzamide]
percent control (mortality or growth inhibition) at 200 ppm (Diabrotica balteata): ≥ 80% | mortality at 500 ppm (Plutella xylostella [2]): ≥ 80%

CC(NC(=O)c1cc(C(F)(F)F)cc(C(F)(F)F)c1)c1nccnc1-c1ccc(Cl)cn1 (stereo not drawn) [Compound P36, N-[1-[3-(5-chloro-2-pyridyl)pyrazin-2-yl]ethyl]-3,5-bis(trifluoromethyl)benzamide]
percent control (mortality, anti-feedant effect or growth inhibition) at 200 ppm (Chilo suppressalis): ≥ 80%

CC(c1cnc(Cl)cc1-c1ncccn1)N(CC1CC1)C(=O)c1cc(C(F)(F)F)cc(C(F)(F)F)c1 (stereo not drawn) [Compound P8, N-[1-(6-chloro-4-pyrimidin-2-yl-3-pyridyl)ethyl]-N-(cyclopropylmethyl)-3,5-bis(trifluoromethyl)benzamide]
percent control (mortality or growth inhibition) at 200 ppm (Plutella xylostella [1]): ≥ 80% | mortality at 500 ppm (Plutella xylostella [2]): ≥ 80%

CC(NC(=O)c1cc(C(F)(F)F)cc(C(F)(F)F)c1)c1nccnc1-c1ncccc1F (stereo not drawn) [Compound P13, N-[1-[3-(3-fluoro-2-pyridyl)pyrazin-2-yl]ethyl]-3,5-bis(trifluoromethyl)benzamide]
percent control (mortality or growth inhibition) at 200 ppm (Diabrotica balteata): ≥ 80% | percent control (mortality, anti-feedant effect or growth inhibition) at 200 ppm (Chilo suppressalis): ≥ 80% | percent control (mortality or growth inhibition) at 200 ppm (Plutella xylostella [1]): ≥ 80% | percent control (mortality, anti-feedant effect or growth inhibition) at 200 ppm (Spodoptera littoralis): ≥ 80%

CC(NC(=O)c1cc(C(F)(F)F)cc(C(F)(F)F)c1)c1nccnc1-c1ccccn1 (stereo not drawn) [Compound P25, N-[1-[3-(2-pyridyl)pyrazin-2-yl]ethyI]-3,5-bis(trifluoromethyl)benzamide]
percent control (mortality or growth inhibition) at 200 ppm (Diabrotica balteata): ≥ 80% | percent control (mortality or growth inhibition) at 200 ppm (Plutella xylostella [1]): ≥ 80% | percent control (mortality, anti-feedant effect or growth inhibition) at 200 ppm (Spodoptera littoralis): ≥ 80% | mortality at 50 ppm (Myzus persicae): ≥ 80% | mortality at 500 ppm (Plutella xylostella [2]): ≥ 80%

CC(c1cnccc1-c1ncccn1)N(CC1CC1)C(=O)c1cc(C(F)(F)F)cc(C(F)(F)F)c1 (stereo not drawn) [Compound P2, N-(cyclopropylmethyl)-N-[1-(4-pyrimidin-2-yl-3-pyridyl)ethyl]-3,5-bis(trifluoromethyl)benzamide]
percent control (mortality or growth inhibition) at 200 ppm (Plutella xylostella [1]): ≥ 80% | mortality at 500 ppm (Plutella xylostella [2]): ≥ 80%

CC(c1nccnc1-c1ccccn1)N(CC1CC1)C(=O)c1cc(C(F)(F)F)cc(C(F)(F)F)c1 (stereo not drawn) [Compound P7, N-(cyclopropylmethyl)-N-[1-[3-(2-pyridyl)pyrazin-2-yl]ethyl]-3,5-bis(trifluoromethyl)benzamide]
percent control (mortality or growth inhibition) at 200 ppm (Diabrotica balteata): ≥ 80% | percent control (mortality or growth inhibition) at 200 ppm (Plutella xylostella [1]): ≥ 80% | percent control (mortality, anti-feedant effect or growth inhibition) at 200 ppm (Spodoptera littoralis): ≥ 80% | mortality at 500 ppm (Plutella xylostella [2]): ≥ 80%

CC(c1ncccc1-c1ncccn1)N(CC1CC1)C(=O)c1cc(C(F)(F)F)cc(C(F)(F)F)c1 (stereo not drawn) [Compound P3, N-(cyclopropylmethyl)-N-[1-(3-pyrimidin-2-yl-2-pyridyl)ethyl]-3,5-bis(trifluoromethyl)benzamide]
percent control (mortality or growth inhibition) at 200 ppm (Diabrotica balteata): ≥ 80% | percent control (mortality or growth inhibition) at 200 ppm (Plutella xylostella [1]): ≥ 80% | percent control (mortality, anti-feedant effect or growth inhibition) at 200 ppm (Spodoptera littoralis): ≥ 80% | mortality at 500 ppm (Plutella xylostella [2]): ≥ 80%

CC(c1ccccc1-c1ncccn1)N(CC1CC1)C(=O)c1cc(C(F)(F)F)cc(C(F)(F)F)c1 (stereo not drawn) [Compound P26, N-(cyclopropylmethyl)-N-[1-(2-pyrimidin-2-ylphenyl)ethyl]-3,5-bis(trifluoromethyl)benzamide]
percent control (mortality or growth inhibition) at 200 ppm (Plutella xylostella [1]): ≥ 80% | mortality at 500 ppm (Plutella xylostella [2]): ≥ 80%

CC(c1ccccc1-c1ccccn1)N(CC1CC1)C(=O)c1cc(Cl)cc(C(F)(F)F)c1 (stereo not drawn) [Compound P27, 3-chloro-N-(cyclopropylmethyl)-N-[1-[2-(2-pyridyl)phenyl]ethyl]-5-(trifluoromethyl)benzamide]
percent control (mortality or growth inhibition) at 200 ppm (Plutella xylostella [1]): ≥ 80% | mortality at 500 ppm (Plutella xylostella [2]): ≥ 80%

CC(NC(=O)c1cc(OCC(F)F)cc(C(F)(F)F)c1)c1nccnc1-c1ncc(C2CC2)cn1 (stereo not drawn) [Compound P32, N-[1-[3-(5-cyclopropylpyrimidin-2-yl)pyrazin-2-yl]ethyl]-3-(2,2-difluoroethoxy)-5-(trifluoromethyl)benzamide]
percent control (mortality, anti-feedant effect or growth inhibition) at 200 ppm (Chilo suppressalis): ≥ 80% | percent control (mortality or growth inhibition) at 200 ppm (Plutella xylostella [1]): ≥ 80% | percent control (mortality, anti-feedant effect or growth inhibition) at 200 ppm (Spodoptera littoralis): ≥ 80%

CC(c1cnc(C(F)(F)F)cc1-c1ncccn1)N(CC1CC1)C(=O)c1cc(C(F)(F)F)cc(C(F)(F)F)c1 (stereo not drawn) [Compound P10, N-(cyclopropylmethyl)-N-[1-[4-pyrimidin-2-yl-6-(trifluoromethyl)-3-pyridyl]ethyl]-3,5-bis(trifluoromethyl)benzamide]
percent control (mortality or growth inhibition) at 200 ppm (Plutella xylostella [1]): ≥ 80% | percent control (mortality, anti-feedant effect or growth inhibition) at 200 ppm (Spodoptera littoralis): ≥ 80% | mortality at 500 ppm (Plutella xylostella [2]): ≥ 80%

CC(c1ccccc1-c1ccccn1)N(CC1CC1)C(=O)c1cc(C(F)(F)F)cc(C(F)(F)F)c1 (stereo not drawn) [Compound P28, N-(cyclopropylmethyl)-N-[1-[2-(2-pyridyl)phenyl]ethyl]-3,5-bis(trifluoromethyl)benzamide]
mortality at 500 ppm (Plutella xylostella [2]): ≥ 80%

CC(c1nccnc1-c1ccccn1)N(CC1CC1)C(=O)c1cc(Cl)cc(C(F)(F)F)c1 (stereo not drawn) [Compound P11, 3-chloro-N-(cyclopropylmethyl)-N-[1-[3-(2-pyridyl)pyrazin-2-yl]ethyl]-5-(trifluoromethyl)benzamide]
percent control (mortality or growth inhibition) at 200 ppm (Diabrotica balteata): ≥ 80% | percent control (mortality or growth inhibition) at 200 ppm (Plutella xylostella [1]): ≥ 80% | percent control (mortality, anti-feedant effect or growth inhibition) at 200 ppm (Spodoptera littoralis): ≥ 80% | mortality at 500 ppm (Plutella xylostella [2]): ≥ 80%
